This note sets out measurements from patent US20250304535A1, “KAT6 Inhibitors” (BeiGene Switzerland GmbH, priority 2024, published 2025).

Assay [1] has as its system histone H3K23 acetylation in U-2 OS cells. The experiment in a line: Histone H3 lysine 23 acetylation assay in U-2 OS cells (high content analysis). It counts as cell-based. As to conditions: Homo sapiens, U2OS, 24 hrs exposure, H3K23ac level. In short, it runs like this:
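U-2 OS cells seeded overnight, then exposed 24 h to a 9-point compound dilution series; 0.1% DMSO medium as blank. Fixed, permeabilised, stained with anti-H3K23ac plus Alexa Fluor 647 secondary and DAPI; nuclear H3K23ac intensity read by high-content imaging. Inhibition = mean per-well cell intensity relative to on-plate blanks.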

Assay [2] has as its target Recombinant human KAT6B protein (657-1069) (Homo sapiens (Human), UniProt Q8WYB5). As to the kind of experiment: KAT6B biochemical TR-FRET assay. The note with it: histone H4 peptide 1000 nM, AcCoA 100 nM, enzyme 5 nM. A general note: Time-resolved FRET reads energy transfer from a long-lived donor to a nearby acceptor.
In assay [3] the target is Recombinant human KAT6A protein (497-780) (Homo sapiens (Human), UniProt Q92794). As to the kind of experiment: KAT6A biochemical TR-FRET assay. The note with it: histone H4 peptide 2000 nM, AcCoA 300 nM, enzyme 5 nM.
Chain of Recombinant human KAT6A protein (497-780) (Q92794 497-780): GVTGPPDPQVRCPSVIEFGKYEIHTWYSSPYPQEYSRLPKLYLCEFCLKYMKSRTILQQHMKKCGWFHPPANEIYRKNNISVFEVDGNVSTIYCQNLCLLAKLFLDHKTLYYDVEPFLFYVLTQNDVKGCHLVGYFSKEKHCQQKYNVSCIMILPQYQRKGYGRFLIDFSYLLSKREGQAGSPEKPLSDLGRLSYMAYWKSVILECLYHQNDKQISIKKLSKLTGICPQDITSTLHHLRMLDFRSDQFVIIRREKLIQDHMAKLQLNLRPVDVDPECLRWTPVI

Chain of Recombinant human KAT6B protein (657-1069) (Q8WYB5 657-1069): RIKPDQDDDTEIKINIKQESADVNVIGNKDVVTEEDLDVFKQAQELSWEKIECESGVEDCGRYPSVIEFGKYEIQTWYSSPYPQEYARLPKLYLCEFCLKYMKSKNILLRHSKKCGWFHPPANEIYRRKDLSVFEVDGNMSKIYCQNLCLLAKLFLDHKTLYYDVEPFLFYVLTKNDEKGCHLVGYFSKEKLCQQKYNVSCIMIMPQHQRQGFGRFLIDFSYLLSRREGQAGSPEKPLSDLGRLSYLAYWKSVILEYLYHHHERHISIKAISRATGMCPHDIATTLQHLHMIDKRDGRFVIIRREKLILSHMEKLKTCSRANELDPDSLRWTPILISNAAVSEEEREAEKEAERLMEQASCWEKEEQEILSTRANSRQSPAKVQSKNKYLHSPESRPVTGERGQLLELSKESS

Broadly, the IC50 is the midpoint of a concentration-inhibition curve. Take `COc1cc(C(=O)NS(=O)(=O)c2cc(C(C)(C)C)ccc2OC)ccc1Cn1cccn1` [Example C7, 4-((1H-pyrazol-1-yl)methyl)-N-((5-(tert-butyl)-2-methoxyphenyl)sulfonyl)-3-methoxybenzamide]: the IC50 in assay [1] is not above 10 nM; in assay [2], not above 5 nM; in assay [3], not above 5 nM.
With `COc1ccc(C(C)(C)C)nc1S(=O)(=O)NC(=O)c1ccc(Cn2cccn2)c(Br)c1` [Example C26, 4-((1H-pyrazol-1-yl)methyl)-3-bromo-N-((6-(tert-butyl)-3-methoxypyridin-2-yl)sulfonyl)benzamide], the IC50 in assay [1] was not above 10 nM; in assay [2], not above 5 nM; in assay [3], not above 5 nM.
In the case of `COc1ccc(C(C)(C)C)cc1S(=O)(=O)NC(=O)c1ccc(Cc2ccccn2)c(C)c1` [Example C29, N-((5-(tert-butyl)-2-methoxyphenyl)sulfonyl)-3-methyl-4-(pyridin-2-ylmethyl)benzamide], the IC50 in assay [1] was not above 10 nM; in assay [2], not above 5 nM; in assay [3], not above 5 nM.
On to `COc1cc(C(=O)NS(=O)(=O)c2c(OC)ccc3c2OCC3(C)C)ccc1Cn1cccn1` [Example C49, 4-((1H-pyrazol-1-yl)methyl)-3-methoxy-N-((6-methoxy-3,3-dimethyl-2,3-dihydrobenzofuran-7-yl)sulfonyl)benzamide], for which the IC50 was not above 10 nM in assay [1], not above 5 nM in assay [2] and not above 5 nM in assay [3].
As for `CCc1cc(C(=O)NS(=O)(=O)c2c(OC)ccc3c2OC(C)(C)C3)ccc1Cn1cccn1` [Example C52, 4-((1H-pyrazol-1-yl)methyl)-3-ethyl-N-((6-methoxy-2,2-dimethyl-2,3-dihydrobenzofuran-7-yl)sulfonyl)benzamide], the half-inhibitory concentration (IC50) in assay [1] was not above 10 nM; in assay [2] it was not above 5 nM; in assay [3], not above 5 nM.
In the case of `COc1ccc2c(c1S(=O)(=O)NC(=O)c1ccc(Cn3cccn3)c(OC)n1)OCCC2(C)C` [Example C39, 5-((1H-pyrazol-1-yl)methyl)-6-methoxy-N-((7-methoxy-4,4-dimethylchroman-8-yl)sulfonyl)picolinamide], the concentration for half-maximal inhibition (IC50) is not above 10 nM in assay [1], not above 5 nM in assay [2] and not above 5 nM in assay [3].
Turning to `COc1ccc(C(C)(C)C)nc1S(=O)(=O)NC(=O)c1ccc(Cn2cccn2)c(N2CCC2)c1` [Example C20, 4-((1H-pyrazol-1-yl)methyl)-3-(azetidin-1-yl)-N-((6-(tert-butyl)-3-methoxypyridin-2-yl)sulfonyl)benzamide], the IC50 in assay [1] is not above 10 nM; in assay [2] it was not above 5 nM; in assay [3], not above 5 nM.
Consider `COc1ccc(C2(C)CCOCC2)cc1S(=O)(=O)NC(=O)c1ccc(Cn2cccn2)c(OC)n1` [Example C70, 5-((1H-pyrazol-1-yl)methyl)-6-methoxy-N-((2-methoxy-5-(4-methyltetrahydro-2H-pyran-4-yl)phenyl)sulfonyl) picolinamide], for which the IC50 was not above 10 nM in assay [1], not above 5 nM in assay [2] and not above 5 nM in assay [3].
For `COc1ccc(C(C)(C)C)cc1S(=O)(=O)NC(=O)c1ccc(Cn2cccn2)c(-c2ccco2)c1` [Example C5, 4-((1H-pyrazol-1-yl)methyl)-N-((5-(tert-butyl)-2-methoxyphenyl)sulfonyl)-3-(furan-2-yl)benzamide], the 50% inhibitory concentration (IC50) is not above 10 nM in assay [1], not above 5 nM in assay [2] and not above 5 nM in assay [3].
As to `[2H]C([2H])([2H])Oc1nc(C(=O)NS(=O)(=O)c2nc(C(C)(C)C)ccc2OC)ccc1Cn1cccn1` [Example C63, 5-((1H-pyrazol-1-yl)methyl)-N-((6-(tert-butyl)-3-methoxypyridin-2-yl)sulfonyl)-6-(methoxy-d3)picolinamide], the results for the IC50 in assay [1], in assay [2] and in assay [3] were not above 10 nM, not above 5 nM and not above 5 nM, respectively.
